In patent publication US8114850B2, “Antiproliferative activity of G-rich oligonucleotides and method of using same to bind to nucleolin” (Advanced Cancer Therapeutics, LLC, priority 1999, dated 2012):

How the values were obtained:
[1] = biological target: T1, GRO-binding protein/nucleolin (HeLa nuclear extracts) (Homo sapiens, UniProt P19338); experiment: EMSA of 32P-labeled oligonucleotides with HeLa nuclear extracts; conditions: 32P-labeled oligonucleotide, FIG. 6A
T1 construct: HeLa nuclear extracts used in EMSAs were purchased from Promega Inc. (bandshift grade); host or cells: HeLa nuclear extract (bandshift grade), purchased
T1 sequence (P19338 whole entry): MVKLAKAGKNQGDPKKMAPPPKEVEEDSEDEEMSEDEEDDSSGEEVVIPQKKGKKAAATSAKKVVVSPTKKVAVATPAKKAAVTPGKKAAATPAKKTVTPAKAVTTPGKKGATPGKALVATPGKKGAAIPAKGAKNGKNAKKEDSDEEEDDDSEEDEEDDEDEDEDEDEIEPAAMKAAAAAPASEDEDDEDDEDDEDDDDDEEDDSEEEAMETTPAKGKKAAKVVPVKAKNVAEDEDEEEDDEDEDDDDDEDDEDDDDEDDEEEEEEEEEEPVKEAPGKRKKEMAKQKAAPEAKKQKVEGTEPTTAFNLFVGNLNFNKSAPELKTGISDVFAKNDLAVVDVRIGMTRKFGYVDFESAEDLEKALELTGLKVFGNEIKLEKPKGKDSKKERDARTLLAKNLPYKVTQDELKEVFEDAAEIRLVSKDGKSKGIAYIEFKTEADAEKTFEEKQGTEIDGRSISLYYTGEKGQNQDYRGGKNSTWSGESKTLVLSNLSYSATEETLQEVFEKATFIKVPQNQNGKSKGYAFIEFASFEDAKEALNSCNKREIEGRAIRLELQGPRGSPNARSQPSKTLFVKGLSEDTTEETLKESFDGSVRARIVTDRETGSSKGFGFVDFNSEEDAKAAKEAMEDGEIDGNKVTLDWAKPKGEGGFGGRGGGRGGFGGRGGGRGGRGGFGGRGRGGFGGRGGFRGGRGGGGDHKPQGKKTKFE
Protocol: Oligonucleotides were 5′-labeled with 32p using T4 kinase. Labeled oligonucleotide (final concentration 1 nM, approximately 50,000 cpm) was preincubated for thirty minutes at 37° C. either alone or in the presence of unlabeled competitor oligonucleotide. Nuclear extracts were added, and the sample was incubated a further thirty minutes at 37° C. Both the preincubation and binding reactions were carried out in Buffer A (20 mM Tris. HCl pH 7.4, 140 mM KCl, 2.5 mM MgCl2, 1 mM dithiothreitol, 0.2 mM phenylmethyl sulfonyl fluoride and 8% (v/v) glycerol). Electrophoresis was carried out using 5% polyacrylamide gels in TBE buffer (90 mM Tris borate, 2 mM EDTA).
HeLa nuclear extracts used in EMSAs were purchased from Promega Inc. (bandshift grade). Nuclear and cytoplasmic extracts from MDA-MB-231 cells were prepared using the protocol described in F. M. Ausubel et al. Ausubel et al. (Eds.) (1996) Current Protocols in Molecular Biology, Wiley, N.Y., Section 12.1. Plasma membrane proteins were prepared from MDA-MB-231 cells using a method previously described. Yao et al. (1996) Biochemical Pharmacology 51, 431-436; Naito et al. (1988) J. Biol. Chem. 263, 11887-11891.
To investigate further the mechanism of the growth modulatory effects, binding of the oligonucleotides to cellular proteins was examined. […]

[2] = biological target: T1, GRO-binding protein/nucleolin (HeLa nuclear extracts); experiment: UV cross-linking of oligonucleotides to HeLa nuclear extracts; conditions: labeled oligonucleotide with HeLa nuclear extracts; FIG. 6C
Protocol: For the UV crosslinking experiments, samples were incubated as described above (EMSA). They were then placed on ice and irradiated at 5 cm from the source using the “autocross link” function of a Stratagene UV Stratalinker. Following irradiation, samples were electrophoresed under denaturing conditions on a 8% polyacrylamide-SDS gel using a standard Tris glycine buffer and visualized by autoradiography.
To determine the approximate molecular weight of the protein involved in complex A, and to confirm that competition for this complex results from direct binding of the protein to oligonucleotides, a UV cross-linking study was conducted. 5′-Labeled oligonucleotides and HeLa nuclear extracts were incubated alone or in the presence of unlabeled competitor oligonucleotides.
The samples were then irradiated with UV light resulting in cross-link formation between protein residues and thymidines in the oligonucleotide. The protein was thus radiolabeled and could be detected on a SDS-polyacrylamide gel.

HS27 cells = experiment: MTT cell growth assay, non-malignant HS27 cells; format: cell-based; conditions: compared to most malignant cell lines; FIG. 2
Protocol: Cells were plated at low density ([…] cells per well, depending on cell line) in the appropriate serum-supplemented medium in 96-well plates (one plate per MTT assay time point) and grown under standard conditions of cell culture. The following day (day 1) oligonucleotide, or water as control, was added to the culture medium to give a final concentration of 15 uM. Further oligonucleotide, equivalent to half the initial dose, was added to the culture medium on days two, three and four.
Cells were assayed using the MTT assay (Morgan (1998) Methods. Mol. Biol. 79, 179-183) on days one, three, five, seven and nine after plating. The culture medium was not changed throughout the duration of the experiment (which was the time required for untreated cells to grow to confluence). Experiments were performed in triplicate and bars represent the standard error of the data.

U937 cells = experiment: MTT dose dependence, leukemic cell line U937; format: cell-based; conditions: FIG. 3
From the text: (§1) FIG. 3: MTT assays showing the dose dependence of growth modulation by GR029A for leukemic cell lines, U937 and […], and a non-malignant mouse hematopoietic stem cell line (ATCC 2037).

K562 cells = experiment: MTT dose dependence, leukemic cell line K562; format: cell-based; conditions: FIG. 3
From the text: as §1

[3] = test system: hematopoietic stem cell line (ATCC 2037); experiment: MTT dose dependence, non-malignant hematopoietic stem cell line; format: cell-based, mouse; conditions: FIG. 3
From the text: as §1

[4] = test system: MDA-MB-231 breast cancer cells; experiment: Chemotherapeutic agent and GRO combination, MTT assay; format: cell-based, human; conditions: cisplatin 0.5 µg/ml, GR029A 8 uM added after two hours, MTT after six days
Protocol: Cisplatin (in 1% DMSO solution to give a final concentration of […]) was added to the medium of MDA-MB-231 breast cancer cells growing in culture. After two hours, GR029A (in PBS solution to give a final concentration of 8 uM) was added to the medium. After six days, the relative number of viable cells was determined using the MTT assay. Cells treated with GR029A alone received an appropriate volume of 1% DMSO in place of cisplatin. Cells treated with cisplatin alone received an appropriate volume of PBS in place of GR029A.

[5] = biological target: T2, TEL-binding protein (GRO-binding protein/nucleolin, MDA-MB-231 nuclear extracts) (Homo sapiens, UniProt P19338); experiment: Competitive EMSA, labeled TEL and MDA-MB-231 nuclear extracts; conditions: 10 nM unlabeled oligonucleotide; labeled TEL, MDA-MB-231 nuclear extracts
T2 construct: Nuclear and cytoplasmic extracts from MDA-MB-231 cells were prepared using the protocol described in F. M. Ausubel et al; endogenous in cells; host or cells: MDA-MB-231 nuclear extract, prepared in house
T2 sequence (P19338 whole entry): as above

Row | Substance | protein-oligonucleotide complex band (EMSA) [1] | UV cross-linked protein complex (approximately 100 kDa) [2] | growth modulatory effect on non-malignant HS27 cells (HS27 cells) | antiproliferative effect, U937 leukemia cells (U937 cells) | antiproliferative effect, K562 leukemia cells (K562 cells) | growth modulatory effect, non-malignant hematopoietic stem cell line (ATCC 2037) [3] | growth modulation [4] | competition for protein binding in competitive EMSA [5]
1 | 5′-GTTGTTTGG GGTGGT-3′ (GTTGTTTGGGGTGGT; DNA, backbone not given here; further chemistry not fully specified) [GRO15A] | intense | crosslinked to a protein | – | – | – | – | – | –
2 | 5′-TTTGGTGGTGGTGG TTGTGGTGGTGGTGG-3′ [GR029A] | intense | formed this approximately 100 kDa complex | lesser growth modulatory effect | antiproliferative effects | antiproliferative effects | lesser growth modulatory effect | 5% | competed strongly
